# Tests used:
# corn = experiment: Test B pre/postemergence corn; format: in vivo, Zea mays
# Outline: (§1)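 Herbicidal effect was estimated by eye on a ten-point control scale after plants spent twelve to sixteen days in a greenhouse following soil or foliar treatment. Foliar sprays targeted plants at one to four leaves; all doses were formulated in a non-phytotoxic solvent with surfactant.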
# duck salad = experiment: Test B flood test duck salad; format: in vivo, Heteranthera limosa
# Outline: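 Plants were grown to the 2-leaf stage before treatment with test chemical, then held in a greenhouse for twelve to sixteen days. Injury was visually rated against untreated controls on a 0–10 scale, where 0 is no effect and 10 is complete control.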
# pigweed = experiment: Test B pre/postemergence pigweed; format: in vivo, Amaranthus retroflexus
# Outline: as §1
# morningglory = experiment: Test B pre/postemergence morningglory; format: in vivo, Ipomoea hederacea
# Outline: as §1
# rape = experiment: Test B pre/postemergence rape; format: in vivo, Brassica napus
# Outline: as §1
# purple nutsedge = experiment: Test B pre/postemergence purple nutsedge; format: in vivo, Cyperus rotundus
# Outline: as §1
# velvetleaf = experiment: Test B pre/postemergence velvetleaf; format: in vivo, Abutilon theophrasti
# Outline: as §1
# surinam grass = experiment: Test B pre/postemergence surinam grass; format: in vivo, Brachiaria decumbens
# Outline: as §1
# crabgrass = experiment: Test B pre/postemergence crabgrass; format: in vivo, Digitaria sanguinalis
# Outline: as §1
# cocklebur = experiment: Test B pre/postemergence cocklebur; format: in vivo, Xanthium strumarium
# Outline: as §1
# bedstraw = experiment: Test B pre/postemergence bedstraw; format: in vivo, Galium aparine
# Outline: as §1
# giant foxtail = experiment: Test B pre/postemergence giant foxtail; format: in vivo, Setaria faberii
# Outline: as §1
# soybean = experiment: Test B pre/postemergence soybean; format: in vivo, Glycine max
# Outline: as §1
# sugar beet = experiment: Test B pre/postemergence sugar beet; format: in vivo, Beta vulgaris
# Outline: as §1
# wheat = experiment: Test B pre/postemergence wheat; format: in vivo, Triticum aestivum
# Outline: as §1
# [1] = Preemergence, Rate 62 g/ha, scale of 0 to 10 where 0 is no effect and 10 is complete control
# [2] = Preemergence, Rate 125 g/ha, 0 is no effect, 10 is complete control
# [3] = Preemergence, Rate 250 g/ha, scale 0 to 10, 0 is no effect, 10 is complete control
# [4] = Preemergence, Rate 500 g/ha, scale 0 (no effect) to 10 (complete control)
# [5] = Preemergence, Rate 500 g/ha, scale of 0 to 10 where 0 is no effect and 10 is complete control
# [6] = Rate 62 g/ha, Postemergence, scale of 0 to 10 where 0 is no effect and 10 is complete control
# [7] = Rate 125 g/ha, Postemergence, scale 0 to 10
# [8] = Rate 500 g/ha, Postemergence, scale 0 to 10
structure (smiles),measurement,setting,value
CCc1cccc(C)c1-n1c(=O)on(C(=O)N(c2ccc(F)cc2)C(C)C)c1=O [Compound 201],Corn plant response rating,corn; [1],0
same,Corn plant response rating (0 to 10 scale),corn; [2],0
same,Corn plant response rating,corn; [3],0
same,Corn plant response rating,corn; [4],0
same,"Plant response rating, Corn",corn; [5],0
same,Corn plant response rating,corn; [6],0
same,Corn plant response rating,corn; [7],0
same,"Plant response rating (0 to 10; 0 is no effect, 10 is complete control), Corn","corn; Rate 250 g/ha, Postemergence",0
same,Corn plant response rating,corn; [8],0
same,Ducksalad plant response rating,"duck salad; Rate 62 g/ha, headed Pre-emergence (flood test species), scale 0 to 10 (0 no effect, 10 complete control)",0
same,Ducksalad plant response rating,"duck salad; Rate 125 g/ha, Pre-emergence, flood test species, scale 0 to 10 where 0 is no effect and 10 is complete control",0
same,Ducksalad plant response rating,"duck salad; Rate 250 g/ha, Pre-emergence, flood-test species, scale 0 to 10, 0 is no effect, 10 is complete control",0
same,"Plant response rating, Ducksalad","duck salad; Rate 500 g/ha, headed Pre-emergence (flood test species), scale 0 to 10 (0 no effect, 10 complete control)",2
same,Redroot pigweed plant response rating,pigweed; [1],0
same,Redroot pigweed plant response rating (0 to 10 scale),pigweed; [2],0
same,Redroot pigweed plant response rating,pigweed; [3],0
same,Redroot pigweed plant response rating,pigweed; [4],0
same,"Plant response rating, Redroot pigweed",pigweed; [5],0
same,Redroot pigweed plant response rating,pigweed; [6],0
same,Redroot pigweed plant response rating,pigweed; [7],0
same,"Plant response rating (0 to 10; 0 is no effect, 10 is complete control), Redroot pigweed","pigweed; Rate 250 g/ha, Postemergence",0
same,Redroot pigweed plant response rating,pigweed; [8],3
same,Morningglory plant response rating,morningglory; [1],0
same,Morningglory plant response rating (0 to 10 scale),morningglory; [2],0
same,Morningglory plant response rating,morningglory; [3],0
same,Morningglory plant response rating,morningglory; [4],0
same,"Plant response rating, Morningglory",morningglory; [5],0
same,Morningglory plant response rating,morningglory; [6],1
same,Morningglory plant response rating,morningglory; [7],1
same,"Plant response rating (0 to 10; 0 is no effect, 10 is complete control), Morningglory","morningglory; Rate 250 g/ha, Postemergence",1
same,Morningglory plant response rating,morningglory; [8],3
same,Rape plant response rating,rape; [1],0
same,Rape plant response rating (0 to 10 scale),rape; [2],0
same,Rape plant response rating,rape; [3],0
same,Rape plant response rating,rape; [4],0
same,"Plant response rating, Rape",rape; [5],0
same,Rape plant response rating,rape; [6],0
same,Rape plant response rating,rape; [7],0
same,"Plant response rating (0 to 10; 0 is no effect, 10 is complete control), Rape","rape; Rate 250 g/ha, Postemergence",0
same,Rape plant response rating,rape; [8],0
same,Nutsedge plant response rating,purple nutsedge; [1],0
same,Nutsedge plant response rating (0 to 10 scale),purple nutsedge; [2],0
same,Nutsedge plant response rating,purple nutsedge; [4],0
same,Nutsedge plant response rating,purple nutsedge; [6],0
same,Nutsedge plant response rating,purple nutsedge; [7],0
same,"Plant response rating (0 to 10; 0 is no effect, 10 is complete control), Nutsedge","purple nutsedge; Rate 250 g/ha, Postemergence",0
same,Nutsedge plant response rating,purple nutsedge; [8],0
same,Velvetleaf plant response rating,velvetleaf; [1],0
same,Velvetleaf plant response rating,velvetleaf; [3],0
same,Velvetleaf plant response rating,velvetleaf; [4],0
same,"Plant response rating, Velvetleaf",velvetleaf; [5],0
same,Velvetleaf plant response rating,velvetleaf; [6],0
same,Velvetleaf plant response rating,velvetleaf; [7],0
same,"Plant response rating (0 to 10; 0 is no effect, 10 is complete control), Velvetleaf","velvetleaf; Rate 250 g/ha, Postemergence",1
same,B. signalgrass plant response rating,surinam grass; [1],0
same,B. signalgrass plant response rating (0 to 10 scale),surinam grass; [2],0
same,B. signalgrass plant response rating,surinam grass; [3],0
same,B. signalgrass plant response rating,surinam grass; [4],0
same,"Plant response rating, B. signalgrass",surinam grass; [5],4
same,B. signalgrass plant response rating,surinam grass; [6],0
same,B. signalgrass plant response rating,"surinam grass; Rate 125 g/ha, Postemergence, scale 0 (no effect) to 10 (complete control)",0
same,"Plant response rating, B. signalgrass","surinam grass; Rate 250 g/ha, Postemergence, scale 0 to 10, 0 is no effect, 10 is complete control",0
same,B. signalgrass plant response rating,"surinam grass; Rate 500 g/ha, Postemergence, scale 0 to 10, 0 no effect, 10 complete control",0
same,Crabgrass plant response rating,crabgrass; [1],0
same,Crabgrass plant response rating (0 to 10 scale),crabgrass; [2],5
same,Crabgrass plant response rating,crabgrass; [3],9
same,Crabgrass plant response rating,crabgrass; [4],4
same,"Plant response rating, Crabgrass",crabgrass; [5],9
same,Crabgrass plant response rating,crabgrass; [6],0
same,Crabgrass plant response rating,crabgrass; [7],0
same,"Plant response rating (0 to 10; 0 is no effect, 10 is complete control), Crabgrass","crabgrass; Rate 250 g/ha, Postemergence",0
same,Crabgrass plant response rating,crabgrass; [8],0
same,Cocklebur plant response rating,cocklebur; [1],0
same,Cocklebur plant response rating (0 to 10 scale),cocklebur; [2],0
same,Cocklebur plant response rating,cocklebur; [3],0
same,Cocklebur plant response rating,cocklebur; [4],0
same,"Plant response rating, Cocklebur",cocklebur; [5],0
same,Cocklebur plant response rating,cocklebur; [6],0
same,Cocklebur plant response rating,cocklebur; [7],0
same,"Plant response rating (0 to 10; 0 is no effect, 10 is complete control), Cocklebur","cocklebur; Rate 250 g/ha, Postemergence",0
same,Cocklebur plant response rating,cocklebur; [8],0
same,Bedstraw plant response rating,bedstraw; [1],0
same,Bedstraw plant response rating (0 to 10 scale),bedstraw; [2],0
same,Bedstraw plant response rating,bedstraw; [3],0
same,Bedstraw plant response rating,bedstraw; [4],0
same,"Plant response rating, Bedstraw",bedstraw; [5],0
same,Bedstraw plant response rating,bedstraw; [6],0
same,Bedstraw plant response rating,bedstraw; [7],0
same,"Plant response rating (0 to 10; 0 is no effect, 10 is complete control), Bedstraw","bedstraw; Rate 250 g/ha, Postemergence",0
same,Bedstraw plant response rating,bedstraw; [8],0
same,Giant foxtail plant response rating,giant foxtail; [1],2
same,Giant foxtail plant response rating (0 to 10 scale),giant foxtail; [2],6
same,Giant foxtail plant response rating,giant foxtail; [3],8
same,Giant foxtail plant response rating,giant foxtail; [4],10
same,"Plant response rating, Giant foxtail",giant foxtail; [5],10
same,Giant foxtail plant response rating,giant foxtail; [6],0
same,Giant foxtail plant response rating,giant foxtail; [7],0
same,"Plant response rating (0 to 10; 0 is no effect, 10 is complete control), Giant foxtail","giant foxtail; Rate 250 g/ha, Postemergence",0
same,Giant foxtail plant response rating,giant foxtail; [8],0
same,Soybean plant response rating,soybean; [1],0
same,Soybean plant response rating (0 to 10 scale),soybean; [2],0
same,Soybean plant response rating,soybean; [3],0
same,Soybean plant response rating,soybean; [4],0
same,"Plant response rating, Soybean",soybean; [5],0
same,Soybean plant response rating,soybean; [6],1
same,Soybean plant response rating,soybean; [7],1
same,"Plant response rating (0 to 10; 0 is no effect, 10 is complete control), Soybean","soybean; Rate 250 g/ha, Postemergence",2
same,Soybean plant response rating,soybean; [8],3
same,Sugarbeets plant response rating,sugar beet; [1],0
same,Sugarbeets plant response rating (0 to 10 scale),sugar beet; [2],0
same,Sugarbeets plant response rating,sugar beet; [3],0
same,Sugarbeets plant response rating,sugar beet; [4],0
same,"Plant response rating, Sugarbeets",sugar beet; [5],0
same,Sugarbeets plant response rating,sugar beet; [6],0
same,Sugarbeets plant response rating,sugar beet; [7],0
same,"Plant response rating (0 to 10; 0 is no effect, 10 is complete control), Sugarbeets","sugar beet; Rate 250 g/ha, Postemergence",3
same,Sugarbeets plant response rating,sugar beet; [8],4
same,Wheat plant response rating,wheat; [1],0
same,Wheat plant response rating,wheat; [3],0
same,Wheat plant response rating,wheat; [4],0
same,"Plant response rating, Wheat",wheat; [5],2
same,Wheat plant response rating,wheat; [6],0
same,Wheat plant response rating,wheat; [7],0
same,"Plant response rating (0 to 10; 0 is no effect, 10 is complete control), Wheat","wheat; Rate 250 g/ha, Postemergence",0
